Test results from patent publication US20130071897A1, “METHOD FOR CONTROLLING UNDESIRABLE BYPRODUCTS FORMATION CAUSED BY CONTAMINATING ORGANISMS IN THE PRODUCTION OF ETHANOL FROM SYNGAS” (COSKATA, INC., priority 2011, published 2013).
Several values for one entry are separate records, joined by “and”; a condition that tells them apart may be missing. Equal entries are not always repeated.

What was measured:
acyl-CoA dehydrogenases = experiment: In vitro acyl-CoA dehydrogenase ferrocenium assay with C. tyrobutyricum cell-free extract; assay type: biochemical; settings: 0.5 to 10 mM compound; rate of ferrocenium reduction at 300 nm
Method: Lehman, et al., in An Acyl-Coenzyme A Dehydrogenase Assay Utilizing the Ferricenium Ion, Analytical Biochemistry 186, pages 280-284 (1990), disclose an in vitro assay screening technique for acyl-CoA dehydrogenases for determining enzyme deficiencies in children. An adaptation of this technique was explored as a potential screening method for ascertaining potential butyrogen inhibitors. An aqueous assay liquor is prepared such that each 1 milliliter sample contains 50 mM of TrisHCl buffer (pH 7.6); 0.05 mM of butyryl-CoA; 5 micromoles of FAD (flavin adenine dinucleotide) and 0.4 mM of ferrocenium. Whole cells of C. tyrobutyricum are lysed and are added to the assay liquor. […] The abbreviation mM stands for millimolar. To assure metabolic consistency among the samples a master batch of C. tyrobutyricum is prepared and harvested at the early log growth stage (approximate O.D. of between about 0.5 and 0.7). The master batch fermentation broth is centrifuged and rinsed with 50 mM TrisHCl buffer (pH 7.6), centrifuged and reconstituted with 50 mM TrisHCl buffer (pH 7.6) to be 10 times more concentrated than the original master batch. Aliquots of about 0.5 milliliter are placed into cryogenic vials (about 1.8 milliliter capacity) and frozen at −80° C. until needed. When needed, a vial is placed in an anoxic Coy chamber and allowed to thaw to room temperature. Once thawed, the cells are added to a 15 mL centrifuge tube and diluted with 0.5 mL of a 2 mg/mL solution of lysozyme (purchased from Aldrich) in 50 mM Tris-HCl (final concentration of lysozyme is about 1 mg/mL). The centrifuge tube is inverted 5 times, removed from the Coy chamber and allowed to incubate at 37° C. for 30 minutes. […] The centrifuge tube is vortexed in the Coy chamber for about 30 seconds, removed from the chamber and centrifuged for 15 minutes at 4000 rpm and 4° C. The tube is returned to the chamber and the cell-free extract (supernatant) is used to prepare the above described samples. The samples are analyzed at various times by absorbance spectroscopy at 300 nm using a Thermo Scientific Evolution 300 UV/Vis spectrophotometer with a 7-cuvette carousel and Starna quartz cuvettes with a septum cap to determine the amount of reduction of ferrocenium. The sample is at laboratory temperature and is maintained under anaerobic conditions. Typically, the absorbance is measured over a period of about 10 to 20 minutes which is sufficient time for the absorbance to stop changing. A linear slope of the rate of change in absorbance during the period that the absorbance is changing is determined using Microsoft Excel® 2010 linear regression to generate a straight line from the data points. The more gradual the slope, the better inhibition because the enzyme is slower at reducing the ferrocenium in the assay sample. A dose-response curve is then determined for each compound by plotting the linear slope against the respective compound concentration. A linear slope is then determined for each compound using Microsoft Excel® 2010 linear regression to generate a straight line from the data points. The steeper the dose-response slope, the better the inhibition because the increased concentration of the compound causes more of a difference in enzyme activity. The dose-response slope generally has a broad standard of deviation due to experimental imprecision and slope determinations.

[1] = test system: Clostridium tyrobutyricum; experiment: Serum bottle batch fermentation of Clostridium tyrobutyricum on fructose, optical density; assay type: cell-based; settings: duplicates A and B; for O.D. Response: Table 17
Method: Ethyl 3-(trifluoromethyl)benzoate is evaluated in a series of batch fermentations to determine the growth response of butyrogens to the presence of this compound at varying concentrations. The batch fermentations are conducted by anoxically filling 100 mL serum bottles with 15 mL of media having the composition given in Tables 12 and 13. About 0.15 mL of a 50% w/w solution of fructose in water (final fructose concentration about 5 g/L) is provided in the bottles. Duplicate runs are conducted for each concentration.
(§1) Each bottle is inoculated with 1.5 mL of seed culture inoculum of the strict butyrogen Clostridium tyrobutyricum, which has an OD of about 0.40 (which upon a 10 times dilution provides a starting OD for the fermentation of about 0.04). The bottles are maintained at a temperature of 37° C. Two hours after inoculation of the bottles with the bacteria, the compound is added to different bottles as a solution in 50 μL of N-methylpyrrolidone in the amounts indicated in Table 15. The fermentation process is allowed to progress at 37° C. At selected intervals of time, bacterial growth is measured by reading the optical density (OD) of the fermentation liquid. Optical density is measured by anoxically removing an aliquot of fermentation liquid and adding it to a disposable cuvette. OD's ranging between 0.01 and 0.4 are measured directly, while OD's greater than 0.4 are measure after performing a 1/10 dilution with water.
In this example ethyl 4,4,4-trifluoro-3-(trifluoromethyl)crotonate and ethyl 3-trifluoromethyl-4-methoxybenzoate are evaluated by batch fermentation. The batch fermentations are conducted by anoxically filling 100 mL serum bottles with 15 mL of media having the composition given in Tables 12 and 13. About 0.15 mL of a 50% w/w solution of fructose in water (final fructose concentration about 5 g/L) is provided in the bottles. Duplicate runs are conducted for each concentration.
as §1, with “of about 0.42 (which upon” for “of about 0.40 (which upon”, “of about 0.042). The bottles” for “of about 0.04). The bottles”, “in Table 16 and 17. The fermentation” for “in Table 15. The fermentation”, “0.4 are measured after performing” for “0.4 are measure after performing”

[2] = test system: Clostridium tyrobutyricum; experiment: Butyric acid by gas chromatography in Clostridium tyrobutyricum batch fermentations; assay type: cell-based; settings: for Butyrate Production: Table 19, duplicates A and B
Method: The concentration of butyric acid is determined by gas chromatography for several of the above samples at the stated points in time. The butyrate production is calculated based upon peak area calculations generated by the gas chromatograph. At 11 hours, the concentration of butyric acid for each of the controls is about 0.95 gram per liter, and the concentration of butyric acid for the samples containing 500 ppm of the inhibitor are about 0.6 gram per liter.
The concentration of butyric acid is determined by gas chromatography using the procedure set forth in Example 13. The control is reported only in Table 18.

SMILES: CCOC(=O)c1cccc(C(F)(F)F)c1 [Ethyl 3-trifluormethylbenzoate]
- Dose-Response Slope (acyl-CoA dehydrogenases): 9
- O.D. Response to Varying Inhibitor Concentrations ([1]; 500 ppm, 0 Hours, added 2 h after inoculation): 0.04
- O.D. Response to Varying Inhibitor Concentrations ([1]; 500 ppm, 2 Hours, added 2 h after inoculation): 0.09
- O.D. Response to Varying Inhibitor Concentrations ([1]; 500 ppm, 3.5 Hours): 0.14
- O.D. Response to Varying Inhibitor Concentrations ([1]; 500 ppm, 5.25 Hours, listed as Ethyl 3-(trifluoromethyl)benzoate): 0.21 and 0.23
- O.D. Response to Varying Inhibitor Concentrations ([1]; 500 ppm, 11 Hours, listed as Ethyl 3-(trifluoromethyl)benzoate): 0.90 and 0.89
- O.D. Response to Varying Inhibitor Concentrations ([1]; 500 ppm, 20.5 Hours, listed as Ethyl 3-(trifluoromethyl)benzoate): 1.53 and 1.44
- O.D. Response to Varying Inhibitor Concentrations ([1]; 1000 ppm, 0 Hours, added 2 h after inoculation): 0.04
- O.D. Response to Varying Inhibitor Concentrations ([1]; 1000 ppm, 2 Hours, added 2 h after inoculation): 0.09
- O.D. Response to Varying Inhibitor Concentrations ([1]; 1000 ppm, 3.5 Hours): 0.15
- O.D. Response to Varying Inhibitor Concentrations ([1]; 1000 ppm, 5.25 Hours, listed as Ethyl 3-(trifluoromethyl)benzoate): 0.21 and 0.22
- O.D. Response to Varying Inhibitor Concentrations ([1]; 1000 ppm, 11 Hours, listed as Ethyl 3-(trifluoromethyl)benzoate): 0.90 and 0.87
- O.D. Response to Varying Inhibitor Concentrations ([1]; 1000 ppm, 20.5 Hours, listed as Ethyl 3-(trifluoromethyl)benzoate): 1.42 and 1.37
- Concentration of butyric acid ([2]; 500 ppm, at 11 hours): about 0.6 gram per liter

SMILES: CCOC(=O)c1ccc(OC)c(C(F)(F)F)c1 [ethyl 3-trifluoromethyl-4-methoxybenzoate]
- O.D. Response ([1]; 5 mM, 0 Hours, added 2 h after inoculation): 0.42
- O.D. Response ([1]; 5 mM, 2 Hours, added 2 h after inoculation): 0.11 and 0.12
- O.D. Response ([1]; 5 mM, 4.5 Hours): 0.20 and 0.18
- O.D. Response ([1]; 5 mM, 6 Hours): 0.16 and 0.10
- O.D. Response ([1]; 5 mM, 24 Hours): 1.23 and 0.91
- O.D. Response ([1]; 10 mM, 0 Hours, added 2 h after inoculation): 0.42
- O.D. Response ([1]; 10 mM, 2 Hours, added 2 h after inoculation): 0.11
- O.D. Response ([1]; 10 mM, 4.5 Hours): 0.24 and 0.23
- O.D. Response ([1]; 10 mM, 6 Hours): 0.12 and 0.13
- O.D. Response ([1]; 10 mM, 24 Hours): 1.22 and 1.19
- Butyrate Production ([2]; 5 mM, 6 Hours): 0.19 grams per liter and 0.10 grams per liter
- Butyrate Production ([2]; 10 mM, 2 Hours): 0.03 grams per liter
- Butyrate Production ([2]; 10 mM, 4.5 Hours): 0.69 grams per liter and 0.67 grams per liter
- Butyrate Production ([2]; 10 mM, 6 Hours): 0.11 grams per liter and 0.10 grams per liter
- Butyrate Production ([2]; 10 mM, 24 Hours): 0.19 grams per liter and 0.17 grams per liter
